Results: patent publication US20110251158A1, “FULLERENE THERAPIES FOR INFLAMMATION AND INHIBITION OF BUILD-UP OF ARTERIAL PLAQUE” (Luna Innovations Incorporated, priority 2008, published 2011)

Assays:
Mast cells (MC) = test: Anti-FcεRI-induced GM-CSF cytokine production in MC; format: cell-based, human; details: maximum inhibition set to 100%
Description: MC are a component of the inflammatory response. As such, cultures of human Mast Cells can be used for screening the activity of different fullerene derivatives to evaluate their potential activity in animal models. In this example, human skin tissue was received from the Cooperative Human Tissue Network and MC purified and cultured as described in Kepley, C. L. Int. Arch. Allergy Immunol. 138, 29-39 (2005). The MC were cultured in media containing stem cell factor which is removed from the culture 24 hours prior to experimentation.
For activation, MC were suspended in fresh medium (without cytokines) and incubated for 16 hours with or without fullerene derivatives at 37° C. in a 6% CO2 incubator. […] The next morning, cells were washed and stimulated with anti-FcεRI Abs (3B4; 1 μg/ml) for 30 minutes (β-hexosaminidase) or overnight (GM-CSF) at 37° C. in a 6% CO2 incubator and mediator release measured as described in Zhao, W., Kepley, C. […]
Cells were cultured with fixed concentrations of a fullerene derivative (10 μg/ml; FIGS. 8A and 9A) or different concentrations (FIGS. 8B and 9B) for 16 h, washed and stimulated for 30 min (FIGS. 8A and 8B) or 24 hours (FIGS. 9A and 9B) with optimal concentrations of αanti-FcεRI Abs (3B4; 1 μg/ml). Cells were centrifuged and β-hexosaminidase release and GMCSF levels determined by ELISA.

Fyn = Fyn protein level in MC; format: cell-based, human; details: pre-incubated with TGA
Description: (§1) Mast cells (1×10^7 cell/condition; each condition performed in triplicate) were incubated with or without fullerene derivatives as above and incubated with or without anti-FcεRI antibodies for 10 minutes, supernatants were removed (to remove pre-formed mediators), and fresh warm medium containing anti-FcεRI antibodies (14 ml) added for 2 hours. Cells were centrifuged, the supernatant and the pellet immediately frozen and microarray performed using the Human Whole Genome OneArray™ gene expression profiling service (Phalanx Biotech Group). Separate samples, assayed in parallel were lysed and protein expression analyzed by Western blotting or flow cytometry (CD45) as described in Kepley, C. L., Pfeiffer, J., Wilson, B. W., Schwartz, L. B., and Oliver, J. M. J. Leukocyte Biol. 64, 474-483 (1998).
Downregulation observed at the gene level was verified at the protein level for several representative molecules using Western blotting or flow cytometry.

inflammatory arthritis = test: Murine arthritis model (arthritogenic serum): clinical indices and ankle swelling; format: in vivo, mice (C57/B6)
Description: To induce disease, C57/B6 (5 mice/cage/group) mice were injected intraperitoneally (IP) on Days 1 and 3 with 100 μl of arthritogenic serum. […] As a control 100 μl of PBS without serum was injected in the control group. Swelling in each ankle was measured along with the clinical indices as described (Lee, D M, Science 2002, Sep. 6; 297(5587):1689-92). Measurements were performed every second day by personnel blinded to the identity of the injections. After 14 days mice were sacrificed and ankle sections removed for histology and serum obtained for cytokine analysis. Error bars, SEM. In FIG. 5A, clinical index was given as the sum of observed inflammation (per paw): 0=no evidence of inflammation; 1=subtle inflammation (metatarsal phalanges joints, individual phalanx, or localized edema); 2=easily identified swelling but localized to either dorsal or ventral surface of paw; and 3=swelling on all aspects of paw. Maximum score=12. In FIG. 5B, the sum of the measurement in ankle swelling at each day was given. The * indicates significant differences observed on that day in fullerene compared to non-fullerene-treated mice. Prior to injection, 5 was incorporated into liposomes with egg phosphatidylcholine (PC) at a ratio of 1:2. 7 was dissolved in PBS buffer at pH 7.4. […]

Lyn = Lyn gene (microarray) and protein (Western blotting) expression in MC; format: cell-based, human
Description: as §1, with “and fresh warm medium containing anti-FcεRI antibodies (14 ml) added for 2 hours.” left out
In order to examine the genes most affected by fullerene derivative preincubation the resulting values were sorted and filtered the following way. First, the mean (±SD) of the six values from each condition for each of the 30,970 genes was calculated. Second, only normalized value intensities of >100 were included so that follow up detection of protein levels would be more likely to be successful. […]

mice = test: Liver toxicity: serum ALT and AST activity after FD injection; format: in vivo; details: tail vein injection
Description: To examine potential toxicity, alanine aminotranferease (ALT) and aspartate aminotransferase (AST) were measured in serum. These enzymes leak out into the general circulation when the liver is injured. Mice were treated with or without 1000 μg/100 μl (50 times more than used for the in vivo study) of TGA or Inos by tail vein injection and i.p. After two and 14 days mice were sacrificed and blood, obtained by cardiac puncture. ALT and AST activity were measured as described in Booth, G., Newham, P., Barlow, R., Raines, S., Zheng, B., and Han, S. Autoimmunity 41, 512-521 (2008). Data is presented as an average of 4 (Untreated) or 4 (Treated) mice±Standard Deviation.

In the case of C70-tetraglycolic acid [TGA], the “IC50 (GMCSF-cytokine production)” value (Mast cells (MC)) is reported as 3.3 (±0.6) μg/ml, the Fyn protein levels (Fyn) is reported as “no change” and the Inflammation (inflammatory arthritis; 200 ng/100 μl IP, days 6 to 12, p<0.03) is reported as “significantly inhibited”. The Inflammation (inflammatory arthritis; 2000 ng/100 μl IP, days 10 to 14, p<0.02) was “significantly inhibited”, the “Lyn gene expression levels reduced” value (Lyn; at 2 hours) was 51% and the “Lyn inhibition at the protein level” value (Lyn; at 6 hours) was 92%. The “Alanine aminotransferase (ALT) Activity” value (mice; Day 2) was 29.2, the “Aspartate aminotransferase (AST) Activity” value (mice; Day 2) was 8.5 and the “Alanine aminotransferase (ALT) Activity” value (mice; Day 14) was 36.7. For the same substance, the “Aspartate aminotransferase (AST) Activity” value (mice; Day 14) was 29.8.
